Values belong to the compound of their own block, whether it stands above or below them. Active and inactive are the calls of the source. No cut-off for these calls is given here.
Columns and labels:
HCT-116 [1] = experiment: Antiproliferative activity against human HCT-116 cells assessed as growth inhibition measured after 72 hrs by CellTiter-Glo assay; assay type: functional; settings: Homo sapiens, HCT-116
MDA-MB-231 [2] = experiment: In vivo antitumor activity against human MDA-MB-231 cells xenografted in Balb/c mouse assessed as reduction in tumor mass at 40 to 70 mg/kg, po once daily measured for 16 days; assay type: functional, organism-based; settings: dose 40-70 mg/kg, time 16.0 day
CYP3A4 = CYP3A4 (Homo sapiens, UniProt P08684); experiment: Inhibition of CYP3A4 (unknown origin) at 10 uM relative to control; assay type: ADME
MDA-MB-231 [3] = experiment: In vivo antitumor activity against human MDA-MB-231 cells xenografted in Balb/c mouse assessed as tumor volume at 40 mg/kg, po once daily measured for 16 days (reference value: 600 mm^3); assay type: functional; settings: time 16.0 day
[4] = Antiproliferative activity against human A375P cells assessed as growth inhibition measured after 72 hrs by CellTiter-Glo assay; assay type: functional; settings: Homo sapiens, A375P
MDA-MB-231 [5] = experiment: Induction of apoptosis in human MDA-MB-231 cells assessed as cleaved PARP at 0.1 to 10 uM incubated for 24 hrs by Western blot analysis; assay type: functional, cell-based; settings: dose 0.1-10 µM
HCT-116 [6] = experiment: Induction of apoptosis in human HCT-116 cells assessed as cleaved caspase-3 at 0.1 to 10 uM incubated for 24 hrs by Western blot analysis; assay type: functional, cell-based; settings: dose 0.1-10 µM
MDA-MB-231 [7] = experiment: Antiproliferative activity against human MDA-MB-231 cells assessed as growth inhibition measured after 72 hrs by CellTiter-Glo assay; assay type: functional; settings: Homo sapiens, MDA-MB-231
[8] = target: T1, Mitogen-activated protein kinase; ERK1/ERK2 (Homo sapiens) (UniProt P27361+P28482); experiment: Inhibition of ERK1/2 autophosphorylation in human HCT-116 cells at 0.5 to 5 uM incubated for 24 hrs by Western blot analysis; assay type: cell-based; settings: dose 0.5-5 µM
MDA-MB-231 [9] = experiment: Induction of apoptosis in human MDA-MB-231 cells assessed as cleaved caspase-3 at 0.1 to 10 uM incubated for 24 hrs by Western blot analysis; assay type: functional, cell-based; settings: dose 0.1-10 µM
MDA-MB-231 [10] = experiment: Antitumor activity against human MDA-MB-231 cells xenografted in Balb/c mouse assessed as decrease in ki67 at 40 to 70 mg/kg, po once daily measured for 16 days by Immunohistochemical analysis; assay type: functional, organism-based; settings: dose 40-70 mg/kg, time 16.0 day
MDA-MB-231 [11] = experiment: Growth inhibition of anchorage-Independent human MDA-MB-231 cells assessed as decrease in number of colonies incubated for 72 hrs by MTT assay; assay type: functional, cell-based; settings: dose 1-10 µM
CYP2C9 = CYP2C9 (Homo sapiens, UniProt P11712); experiment: Inhibition of CYP2C9 (unknown origin) at 10 uM relative to control; assay type: ADME
HCT-116 [12] = experiment: Induction of apoptosis in human HCT-116 cells assessed as cleaved PARP at 0.1 to 10 uM incubated for 24 hrs by Western blot analysis; assay type: functional, cell-based; settings: dose 0.1-10 µM
[13] = target: T1, Mitogen-activated protein kinase; ERK1/ERK2 (Homo sapiens); experiment: Inhibition of ERK1/2 autophosphorylation in human MDA-MB-231 cells at 0.5 to 5 uM incubated for 24 hrs by Western blot analysis; assay type: cell-based; settings: dose 0.5-5 µM
MDA-MB-231 [14] = experiment: In vivo antitumor activity against human MDA-MB-231 cells xenografted in Balb/c mouse assessed as tumor volume at 70 mg/kg, po once daily measured for 16 days (reference value: 600 mm^3); assay type: functional; settings: time 16.0 day
CYP1A2 = target: T2, CYP1A2 (Homo sapiens, UniProt P05177); experiment: Inhibition of CYP1A2 (unknown origin) at 10 uM relative to control; assay type: ADME
T2 sequence (P05177 whole entry): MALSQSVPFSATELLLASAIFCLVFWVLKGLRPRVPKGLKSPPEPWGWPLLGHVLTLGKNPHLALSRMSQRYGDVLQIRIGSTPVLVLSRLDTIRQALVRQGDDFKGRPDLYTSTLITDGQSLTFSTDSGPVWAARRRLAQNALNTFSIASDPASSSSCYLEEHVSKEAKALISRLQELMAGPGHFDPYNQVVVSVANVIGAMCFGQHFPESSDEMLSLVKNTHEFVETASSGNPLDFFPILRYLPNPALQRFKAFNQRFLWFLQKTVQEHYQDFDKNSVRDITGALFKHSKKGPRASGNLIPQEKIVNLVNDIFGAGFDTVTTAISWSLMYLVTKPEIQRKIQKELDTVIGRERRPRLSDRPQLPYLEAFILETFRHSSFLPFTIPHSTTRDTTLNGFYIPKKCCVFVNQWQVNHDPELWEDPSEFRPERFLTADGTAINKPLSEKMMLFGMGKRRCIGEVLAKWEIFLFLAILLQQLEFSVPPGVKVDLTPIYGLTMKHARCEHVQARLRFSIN

CYP2D6 = CYP2D6 (Homo sapiens, UniProt P10635); experiment: Inhibition of CYP2D6 (unknown origin) at 10 uM relative to control; assay type: ADME
MDA-MB-231 [15] = experiment: In vivo antitumor activity against human MDA-MB-231 cells xenografted in Balb/c mouse assessed as reduction in tumor weight at 40 to 70 mg/kg, po once daily measured for 16 days; assay type: functional, organism-based; settings: dose 40-70 mg/kg, time 16.0 day
MDA-MB-231 [16] = experiment: Induction of apoptosis in human MDA-MB-231 cells assessed apoptotic cell death at 10 uM incubated for 24 hrs by Annexin-V/PI analysis; assay type: functional, cell-based
MDA-MB-231 [17] = experiment: Antimetastatic activity against human MDA-MB-231 cells expressing firefly luciferase xenografted NSG orthotopic mouse model assessed as reduction in luminescence intensity at chest region at 70 mg/kg, po once daily measured for 2 weeks; assay type: functional, organism-based
[18] = Toxicity in Balb/c mouse xenografted with human MDA-MB-231 cells assessed as change in body weight at 40 to 70 mg/kg, po once daily measured for 16 days; assay type: organism-based; settings: in vivo, 384 h, dose 40-70 mg/kg, time 16 day
BaF3 [19] = experiment: Antiproliferative activity against mouse Ba/F3 cells harbouring FLT3 ITD F691L mutant assessed as growth inhibition measured after 72 hrs by CellTiter-Glo assay; assay type: functional; settings: Mus musculus, BaF3
BaF3 [20] = experiment: Antiproliferative activity against mouse Ba/F3 cells harbouring FLT3 ITD D835Y mutant assessed as growth inhibition measured after 72 hrs by CellTiter-Glo assay; assay type: functional; settings: Mus musculus, BaF3
BaF3 [21] = experiment: Antiproliferative activity against mouse Ba/F3 cells harbouring FLT3 D835Y mutant assessed as growth inhibition measured after 72 hrs by CellTiter-Glo assay; assay type: functional; settings: Mus musculus, BaF3
MV4-11 = experiment: In vivo antitumor activity against human MV4-11 cells xenografted in mouse assessed as tumor weight at 20 mg/kg, po relative to control; assay type: functional, organism-based
BaF3 [22] = experiment: Antiproliferative activity against mouse Ba/F3 cells harbouring FLT3 ITD F691I mutant assessed as growth inhibition measured after 72 hrs by CellTiter-Glo assay; assay type: functional; settings: Mus musculus, BaF3
BaF3 [23] = experiment: Antiproliferative activity against mouse Ba/F3 cells assessed as growth inhibition measured after 72 hrs by CellTiter-Glo assay; assay type: functional; settings: Mus musculus, BaF3
BaF3 [24] = experiment: Antiproliferative activity against mouse Ba/F3 cells harbouring FLT3 ITD mutant assessed as growth inhibition measured after 72 hrs by CellTiter-Glo assay; assay type: functional; settings: Mus musculus, BaF3

T1 sequence (P27361 whole entry, looked up): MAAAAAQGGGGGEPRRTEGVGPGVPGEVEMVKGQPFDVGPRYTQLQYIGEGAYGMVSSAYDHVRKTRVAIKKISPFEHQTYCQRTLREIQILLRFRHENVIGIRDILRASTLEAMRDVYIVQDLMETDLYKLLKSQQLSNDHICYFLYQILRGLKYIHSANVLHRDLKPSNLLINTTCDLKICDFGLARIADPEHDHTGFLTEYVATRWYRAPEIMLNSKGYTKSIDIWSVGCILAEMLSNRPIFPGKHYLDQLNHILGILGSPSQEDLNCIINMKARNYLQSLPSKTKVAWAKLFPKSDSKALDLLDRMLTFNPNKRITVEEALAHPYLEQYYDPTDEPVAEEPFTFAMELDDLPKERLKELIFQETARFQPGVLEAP
T1 sequence (P28482 whole entry, looked up): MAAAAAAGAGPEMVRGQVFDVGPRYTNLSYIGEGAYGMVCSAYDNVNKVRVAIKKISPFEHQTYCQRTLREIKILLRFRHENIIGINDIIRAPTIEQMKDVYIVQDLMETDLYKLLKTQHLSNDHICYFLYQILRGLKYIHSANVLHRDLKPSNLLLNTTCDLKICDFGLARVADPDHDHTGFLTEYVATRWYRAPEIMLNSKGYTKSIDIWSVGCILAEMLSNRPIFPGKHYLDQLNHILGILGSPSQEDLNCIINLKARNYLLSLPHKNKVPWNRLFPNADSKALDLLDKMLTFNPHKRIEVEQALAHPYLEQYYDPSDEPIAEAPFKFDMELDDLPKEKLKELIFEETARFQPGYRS
Sequence of CYP3A4 (P08684 whole entry): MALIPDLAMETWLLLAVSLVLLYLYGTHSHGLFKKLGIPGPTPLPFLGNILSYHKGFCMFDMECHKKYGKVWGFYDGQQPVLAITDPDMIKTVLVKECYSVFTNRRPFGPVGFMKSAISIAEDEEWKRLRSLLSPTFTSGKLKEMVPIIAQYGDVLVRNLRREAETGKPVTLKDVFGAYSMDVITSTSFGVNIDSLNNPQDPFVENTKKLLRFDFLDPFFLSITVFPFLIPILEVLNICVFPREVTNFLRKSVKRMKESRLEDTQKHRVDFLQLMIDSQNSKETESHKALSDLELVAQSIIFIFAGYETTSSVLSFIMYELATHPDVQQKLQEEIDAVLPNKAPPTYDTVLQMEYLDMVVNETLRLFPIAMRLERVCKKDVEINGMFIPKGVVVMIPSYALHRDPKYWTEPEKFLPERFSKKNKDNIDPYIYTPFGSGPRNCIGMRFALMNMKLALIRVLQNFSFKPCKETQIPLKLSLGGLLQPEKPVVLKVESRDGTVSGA
Sequence of CYP2C9 (P11712 whole entry): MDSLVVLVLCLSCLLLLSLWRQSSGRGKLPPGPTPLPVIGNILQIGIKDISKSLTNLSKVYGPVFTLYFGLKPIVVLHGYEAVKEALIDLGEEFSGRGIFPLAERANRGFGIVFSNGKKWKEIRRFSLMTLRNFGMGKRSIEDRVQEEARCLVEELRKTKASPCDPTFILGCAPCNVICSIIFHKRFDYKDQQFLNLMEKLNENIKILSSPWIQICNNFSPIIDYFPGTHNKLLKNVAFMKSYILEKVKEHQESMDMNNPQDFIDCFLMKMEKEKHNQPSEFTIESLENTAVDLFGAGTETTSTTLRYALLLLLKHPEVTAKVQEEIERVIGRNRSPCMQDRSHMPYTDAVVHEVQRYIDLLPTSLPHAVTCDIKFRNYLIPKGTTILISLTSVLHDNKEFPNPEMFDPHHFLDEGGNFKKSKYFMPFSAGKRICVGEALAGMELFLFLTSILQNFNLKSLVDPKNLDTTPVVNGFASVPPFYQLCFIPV
Sequence of CYP2D6 (P10635 whole entry): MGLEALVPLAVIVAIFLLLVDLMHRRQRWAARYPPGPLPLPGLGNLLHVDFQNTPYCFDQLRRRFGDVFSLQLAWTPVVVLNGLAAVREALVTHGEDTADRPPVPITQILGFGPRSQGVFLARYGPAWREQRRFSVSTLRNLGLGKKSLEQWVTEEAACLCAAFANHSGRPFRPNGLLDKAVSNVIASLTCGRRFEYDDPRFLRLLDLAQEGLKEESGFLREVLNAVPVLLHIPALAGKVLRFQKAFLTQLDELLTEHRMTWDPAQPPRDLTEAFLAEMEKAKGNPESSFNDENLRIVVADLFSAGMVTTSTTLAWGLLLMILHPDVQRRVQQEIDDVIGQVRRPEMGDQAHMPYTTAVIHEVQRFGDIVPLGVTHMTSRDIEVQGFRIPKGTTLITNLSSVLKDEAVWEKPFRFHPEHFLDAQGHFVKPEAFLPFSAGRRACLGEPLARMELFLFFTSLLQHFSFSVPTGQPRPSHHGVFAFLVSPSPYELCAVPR

GI50 (HCT-116 [1]): 1140 nM
inhibition at 10 µM (CYP3A4): 47.2%
GI50 (MDA-MB-231 [7]): 1950 nM
inhibition [8]: inactive
inhibition at 10 µM (CYP2C9): 42.7%
inhibition [13]: inactive
inhibition at 10 µM (CYP1A2): 91.2%
inhibition at 10 µM (CYP2D6): 90.5%
SMILES: CN(c1ncccc1CNc1nc(Nc2ccc3c(c2)CC(=O)N3)ncc1C(F)(F)F)S(C)(=O)=O [PF-00562271]
Activity (MDA-MB-231 [2]): Active
Activity (MDA-MB-231 [3]): Active
GI50 [4]: 10200 nM
Activity (MDA-MB-231 [5]): Active
Activity (HCT-116 [6]): Active
Activity (MDA-MB-231 [9]): Active
Activity (MDA-MB-231 [10]): Active
growth inhibition (GI) (MDA-MB-231 [11]): Active
Activity (HCT-116 [12]): Active
Activity (MDA-MB-231 [14]): Active
Activity (MDA-MB-231 [15]): Active
Activity (MDA-MB-231 [16]): Active
Activity (MDA-MB-231 [17]): Active
Activity [18]: Non-Toxic

GI50 (BaF3 [19]): 1540 nM
GI50 (BaF3 [20]): 206 nM
GI50 (BaF3 [21]): 56.5 nM
GI50 (BaF3 [22]): 2640 nM
GI50 (BaF3 [23]): 5420 nM
GI50 (BaF3 [24]): 2.8 nM
SMILES: CNC(=O)c1cc(Oc2ccc(NC(=O)Nc3ccc(Cl)c(C(F)(F)F)c3)cc2)ccn1 [SORAFENIB]
Activity (MV4-11): Active

— ChEMBL document CHEMBL4837239, “Identification of Thieno[3,2-d]pyrimidine Derivatives as Dual Inhibitors of Focal Adhesion Kinase and FMS-like Tyrosine Kinase 3” (J Med Chem, 2021)
